Results on two compounds are retold here after patent publication US8569302B2, “Inhibitors of flaviviridae viruses” (Gilead Sciences, Inc., priority 2009, dated 2013).

The subject of the assay is human hepatoma Huh-7 cell line harboring a HCV replicon. The experiment in a line: HCV replicon assay (inhibition of viral replication, luciferase readout). In kind it is cell-based. The settings on record: Hepatitis C virus, 72 h, Huh-7 HCV replicon cells, 3 days incubation. A digest of the protocol:
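Read-outs: luciferase luminescence for replication inhibition, corrected by ITMN-191 (100% inhibition) wells, and calcein AM fluorescence for cytotoxicity. Cells were treated for 3 days at 37 °C with ten 3-fold compound dilutions in 0.44% final DMSO. Percent inhibition relative to DMSO was fitted with a Hill equation to give EC50 and CC50.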
Background: A replicon is a self-replicating genome or part of one, used to study replication in cells.

As a reminder, the inhibition is the share of the control response that was lost under treatment. Lower therefore signals little suppression. For the compound `C[C@H]1CC[C@H](C(=O)N(c2cc(C#CC3(C(F)(F)F)CC3)sc2C(=O)O)[C@H]2CC[C@H](OC3CCOC3)CC2)CC1` (stereo partly drawn) [Compound 345, 3-((1r,4R)-4-methyl-N-((1r,4R)-4-(tetrahydrofuran-3-yloxy)cyclohexyl)cyclohexanecarboxamido)-5-(2-(1-(trifluoromethyl)cyclopropyl)ethynyl)thiophene-2-carboxylic acid], at 2 µM the inhibition was 100%.

`C[C@H]1CC[C@H](C(=O)N(c2cc(C#CC3(C(F)(F)F)CC3)sc2C(=O)O)[C@H]2CC[C@@H](OC3CCOC3)CC2)CC1` (stereo partly drawn) [Compound 346, 3-((1r,4R)-4-methyl-N-((1s,4S)-4-(tetrahydrofuran-3-yloxy)cyclohexyl)cyclohexanecarboxamido)-5-(2-(1-(trifluoromethyl)cyclopropyl)ethynyl)thiophene-2-carboxylic acid] yielded an inhibition at 2 µM of 99.5%.
